Where two headings read alike, the source gives them in different places.
Columns and labels:
[1] = target: PDGFRα (Homo sapiens (Human), UniProt P16234); assay: Inhibition of PDGFRα kinase activity (HTRF KinEASE-TK); settings: biochemical, HTRF KinEASE-TK
Procedure, shortened: (§1)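 Recombinant kinases (2 nM CSF1R and c-Kit, 10 nM PDGFRα/β, 2× working) preincubated 1 h with compound in 50 mM HEPES pH 7.4, 5 mM MgCl2 (c-Kit) or 10 mM (others), 2 mM MnCl2; 2× ATP: c-Kit 16 μM, PDGFRα 1 μM, PDGFRβ 40 μM, CSF1R 20 μM. 120 min reaction at rt; TR-FRET 665/620 nm; IC50 by 4-parameter fit.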

[2] = target: CSF1R (Homo sapiens (Human), UniProt P07333); assay: Inhibition of CSF1R kinase activity (HTRF KinEASE-TK); settings: biochemical, HTRF KinEASE-TK
Procedure, shortened: as §1

[3] = test system: Phospho-KIT (Y703) in M07e cells; assay: Phospho-KIT (Y703) cellular assay in M07e cells; type: cell-based; settings: Phospho-KIT (Y703), M07e cells, read-out: M07e Cell IC50
Procedure, shortened: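 Serum-starved M07e cells preincubated 50 min at 37° C with 11-point half-log compound titration, then stimulated 10 min with SCF at 90.9 ng/mL final. Fixed, permeabilized cells stained for phospho-KIT Y703 and read by flow cytometry (live-gated geometric mean); IC50 by 4-parameter fit normalized to DMSO and positive control.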

[4] = target: PDGFRβ (Homo sapiens (Human), UniProt P09619); assay: Inhibition of PDGFRβ kinase activity (HTRF KinEASE-TK); settings: biochemical, HTRF KinEASE-TK
Procedure, shortened: as §1

[5] = target: c-Kit (Homo sapiens (Human), UniProt P10721); assay: Inhibition of c-Kit kinase activity (HTRF KinEASE-TK); type: biochemical; settings: biochemical, HTRF KinEASE-TK
Procedure, shortened: as §1

[6] = target: FLT3 (Homo sapiens (Human), UniProt P36888); assay: Inhibition of FLT3 kinase activity (HTRF KinEASE-TK); type: biochemical; settings: biochemical, HTRF KinEASE-TK
Procedure, shortened: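 FLT3 tyrosine kinase activity was measured with the HTRF KinEASE-TK kit by following phosphorylation of a biotinylated TK peptide. After the 45 min reaction, 10 μL of detection mix was added: 0.2 μM (2×) Streptavidin-XL665 and 2 μM (2×) TK-Antibody-Cryptate in detection buffer. After 60 min, TR-FRET was read on an Envision as the 665 nm/620 nm emission ratio with 320 nm excitation.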

PDGFRα, sequence (P16234 24-1089): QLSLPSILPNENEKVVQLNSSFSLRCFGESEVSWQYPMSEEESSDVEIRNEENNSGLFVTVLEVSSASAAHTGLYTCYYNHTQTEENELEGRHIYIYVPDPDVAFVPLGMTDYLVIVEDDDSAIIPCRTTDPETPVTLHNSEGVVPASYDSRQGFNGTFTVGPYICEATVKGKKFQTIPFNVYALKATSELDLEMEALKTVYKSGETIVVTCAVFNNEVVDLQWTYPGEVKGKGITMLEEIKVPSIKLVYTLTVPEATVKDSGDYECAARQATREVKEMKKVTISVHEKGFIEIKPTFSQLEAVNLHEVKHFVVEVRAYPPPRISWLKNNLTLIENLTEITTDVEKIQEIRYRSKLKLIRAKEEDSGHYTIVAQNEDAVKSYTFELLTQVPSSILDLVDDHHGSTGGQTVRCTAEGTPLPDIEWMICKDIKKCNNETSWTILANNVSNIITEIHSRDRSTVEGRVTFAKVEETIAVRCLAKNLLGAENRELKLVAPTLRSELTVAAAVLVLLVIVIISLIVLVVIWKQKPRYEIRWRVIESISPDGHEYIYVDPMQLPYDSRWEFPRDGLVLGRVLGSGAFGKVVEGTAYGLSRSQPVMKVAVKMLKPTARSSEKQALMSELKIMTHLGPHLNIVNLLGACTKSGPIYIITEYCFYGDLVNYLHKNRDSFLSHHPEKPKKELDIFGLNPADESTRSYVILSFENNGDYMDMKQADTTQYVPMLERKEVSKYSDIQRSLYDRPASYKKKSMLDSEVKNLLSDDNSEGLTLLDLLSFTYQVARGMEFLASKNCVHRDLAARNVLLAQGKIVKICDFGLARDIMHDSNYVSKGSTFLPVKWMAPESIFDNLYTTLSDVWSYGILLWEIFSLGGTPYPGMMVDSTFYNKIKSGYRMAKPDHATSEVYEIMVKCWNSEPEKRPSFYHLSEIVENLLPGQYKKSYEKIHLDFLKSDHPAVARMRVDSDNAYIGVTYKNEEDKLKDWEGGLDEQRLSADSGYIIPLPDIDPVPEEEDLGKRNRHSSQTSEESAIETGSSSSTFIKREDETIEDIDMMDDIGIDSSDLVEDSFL
PDGFRβ, sequence (P09619 33-1106): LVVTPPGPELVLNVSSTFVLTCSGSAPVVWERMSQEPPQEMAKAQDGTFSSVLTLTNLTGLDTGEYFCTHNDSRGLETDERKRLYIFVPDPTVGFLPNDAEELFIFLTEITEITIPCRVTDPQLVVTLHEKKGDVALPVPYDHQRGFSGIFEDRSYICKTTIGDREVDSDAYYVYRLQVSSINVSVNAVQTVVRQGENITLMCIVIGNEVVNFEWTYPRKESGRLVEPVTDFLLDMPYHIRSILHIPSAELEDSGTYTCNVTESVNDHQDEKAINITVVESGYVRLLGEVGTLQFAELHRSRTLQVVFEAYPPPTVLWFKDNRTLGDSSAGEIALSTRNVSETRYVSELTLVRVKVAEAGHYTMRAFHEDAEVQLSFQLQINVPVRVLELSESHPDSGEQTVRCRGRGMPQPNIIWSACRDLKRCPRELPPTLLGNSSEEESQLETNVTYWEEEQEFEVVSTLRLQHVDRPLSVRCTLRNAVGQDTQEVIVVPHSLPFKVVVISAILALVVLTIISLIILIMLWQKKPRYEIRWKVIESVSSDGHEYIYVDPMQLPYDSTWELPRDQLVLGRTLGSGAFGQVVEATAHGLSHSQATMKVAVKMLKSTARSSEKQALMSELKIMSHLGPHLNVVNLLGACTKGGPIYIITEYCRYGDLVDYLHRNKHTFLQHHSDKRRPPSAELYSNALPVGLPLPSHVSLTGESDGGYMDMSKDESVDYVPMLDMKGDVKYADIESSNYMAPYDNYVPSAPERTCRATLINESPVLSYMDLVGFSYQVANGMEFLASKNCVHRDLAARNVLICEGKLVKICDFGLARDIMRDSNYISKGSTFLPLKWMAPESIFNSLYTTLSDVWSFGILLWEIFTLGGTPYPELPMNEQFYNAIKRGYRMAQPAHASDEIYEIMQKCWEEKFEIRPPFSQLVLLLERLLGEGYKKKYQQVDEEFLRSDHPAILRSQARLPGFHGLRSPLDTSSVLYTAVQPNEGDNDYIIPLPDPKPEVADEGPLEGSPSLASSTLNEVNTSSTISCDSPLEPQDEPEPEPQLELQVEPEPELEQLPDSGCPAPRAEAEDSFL
CSF1R, sequence (P07333 20-972): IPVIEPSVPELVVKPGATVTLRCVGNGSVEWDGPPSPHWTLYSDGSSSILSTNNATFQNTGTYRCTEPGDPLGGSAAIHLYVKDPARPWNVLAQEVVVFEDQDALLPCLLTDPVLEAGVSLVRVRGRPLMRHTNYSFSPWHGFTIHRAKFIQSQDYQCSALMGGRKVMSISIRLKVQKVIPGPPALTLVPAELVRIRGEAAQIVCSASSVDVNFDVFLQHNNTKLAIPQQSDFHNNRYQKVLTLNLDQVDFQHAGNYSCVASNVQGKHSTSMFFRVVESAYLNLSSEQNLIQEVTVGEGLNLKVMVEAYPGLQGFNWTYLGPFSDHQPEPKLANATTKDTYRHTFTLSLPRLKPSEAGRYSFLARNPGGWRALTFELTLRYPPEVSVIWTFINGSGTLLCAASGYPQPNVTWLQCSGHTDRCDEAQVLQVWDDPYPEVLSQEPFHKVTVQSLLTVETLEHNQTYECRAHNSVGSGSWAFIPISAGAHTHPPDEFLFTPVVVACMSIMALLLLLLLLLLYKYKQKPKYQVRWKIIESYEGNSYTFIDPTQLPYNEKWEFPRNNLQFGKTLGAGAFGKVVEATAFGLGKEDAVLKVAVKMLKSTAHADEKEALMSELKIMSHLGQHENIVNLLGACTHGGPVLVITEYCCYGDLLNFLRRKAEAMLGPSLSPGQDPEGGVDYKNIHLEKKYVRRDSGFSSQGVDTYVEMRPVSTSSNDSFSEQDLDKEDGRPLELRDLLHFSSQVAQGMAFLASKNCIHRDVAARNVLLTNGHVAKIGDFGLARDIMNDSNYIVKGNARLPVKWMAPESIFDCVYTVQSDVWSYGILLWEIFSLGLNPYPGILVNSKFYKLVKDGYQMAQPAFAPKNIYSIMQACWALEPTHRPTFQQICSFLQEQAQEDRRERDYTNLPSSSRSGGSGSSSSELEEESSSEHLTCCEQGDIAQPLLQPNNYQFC
c-Kit, sequence (P10721 26-976): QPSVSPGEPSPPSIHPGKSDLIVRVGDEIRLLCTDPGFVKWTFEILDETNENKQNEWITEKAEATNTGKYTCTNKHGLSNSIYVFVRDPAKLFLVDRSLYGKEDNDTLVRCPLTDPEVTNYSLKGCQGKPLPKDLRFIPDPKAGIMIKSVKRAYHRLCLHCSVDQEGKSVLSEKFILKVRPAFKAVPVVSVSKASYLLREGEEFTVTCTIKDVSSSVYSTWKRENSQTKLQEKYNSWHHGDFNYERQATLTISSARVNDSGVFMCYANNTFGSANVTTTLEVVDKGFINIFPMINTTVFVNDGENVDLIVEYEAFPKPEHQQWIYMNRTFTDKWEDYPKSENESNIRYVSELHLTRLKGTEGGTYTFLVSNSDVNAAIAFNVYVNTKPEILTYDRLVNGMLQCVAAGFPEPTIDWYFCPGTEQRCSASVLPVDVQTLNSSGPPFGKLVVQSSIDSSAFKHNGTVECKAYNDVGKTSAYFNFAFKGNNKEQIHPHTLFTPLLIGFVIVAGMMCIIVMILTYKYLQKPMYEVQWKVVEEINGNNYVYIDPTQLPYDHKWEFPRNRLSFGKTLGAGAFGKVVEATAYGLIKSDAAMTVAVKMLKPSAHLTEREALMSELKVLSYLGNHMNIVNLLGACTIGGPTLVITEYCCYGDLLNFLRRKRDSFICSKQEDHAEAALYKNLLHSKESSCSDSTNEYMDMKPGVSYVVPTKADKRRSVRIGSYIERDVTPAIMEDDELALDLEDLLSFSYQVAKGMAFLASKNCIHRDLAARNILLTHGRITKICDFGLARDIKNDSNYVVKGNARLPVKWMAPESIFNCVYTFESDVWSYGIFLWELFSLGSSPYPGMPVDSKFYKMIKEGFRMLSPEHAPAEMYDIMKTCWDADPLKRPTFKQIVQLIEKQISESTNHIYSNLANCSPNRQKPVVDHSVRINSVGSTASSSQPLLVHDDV
FLT3, sequence (P36888 27-993): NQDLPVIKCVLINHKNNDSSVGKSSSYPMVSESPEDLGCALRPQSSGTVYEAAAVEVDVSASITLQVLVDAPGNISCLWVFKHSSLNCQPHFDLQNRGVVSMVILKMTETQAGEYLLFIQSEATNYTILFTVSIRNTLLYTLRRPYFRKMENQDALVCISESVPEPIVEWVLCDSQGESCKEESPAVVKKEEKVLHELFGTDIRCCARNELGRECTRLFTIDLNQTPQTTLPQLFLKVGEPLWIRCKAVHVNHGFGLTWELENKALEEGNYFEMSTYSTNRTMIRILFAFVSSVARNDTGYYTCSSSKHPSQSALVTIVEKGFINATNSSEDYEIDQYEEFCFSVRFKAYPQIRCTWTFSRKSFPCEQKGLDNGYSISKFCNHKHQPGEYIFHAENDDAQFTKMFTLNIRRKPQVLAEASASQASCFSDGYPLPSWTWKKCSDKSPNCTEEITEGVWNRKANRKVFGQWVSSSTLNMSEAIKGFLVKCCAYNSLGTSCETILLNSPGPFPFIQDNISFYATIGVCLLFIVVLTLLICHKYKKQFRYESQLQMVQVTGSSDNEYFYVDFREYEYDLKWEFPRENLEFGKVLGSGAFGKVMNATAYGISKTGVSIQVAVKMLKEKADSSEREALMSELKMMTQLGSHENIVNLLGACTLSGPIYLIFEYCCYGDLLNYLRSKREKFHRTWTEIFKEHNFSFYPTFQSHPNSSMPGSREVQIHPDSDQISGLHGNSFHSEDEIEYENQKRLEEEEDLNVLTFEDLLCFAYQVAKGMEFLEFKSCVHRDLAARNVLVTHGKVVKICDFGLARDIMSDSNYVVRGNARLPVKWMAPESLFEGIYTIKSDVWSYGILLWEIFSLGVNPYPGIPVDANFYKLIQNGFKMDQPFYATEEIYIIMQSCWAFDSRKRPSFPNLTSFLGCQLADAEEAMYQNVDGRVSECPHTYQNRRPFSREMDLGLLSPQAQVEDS

Structure (SMILES) | IC50 [1] [nM] | IC50 [2] [nM] | IC50 ([3]; M-07e) [nM] | IC50 [4] [nM] | IC50 [5] [nM] | IC50 [6] [nM] | IC50 [3] [nM]
Cc1cc(F)c(C(=O)Nc2ccc(C3(C#N)CC3)cn2)cc1NC(=O)c1cnc(N)s1 [Example 118, 2-Amino-N-[5-[[5-(1-cyanocyclopropyl)pyridin-2-yl]carbamoyl]-4-fluoro-2-methylphenyl]-1,3-thiazole-5-carboxamide] | > 1000 | 100 to 1000 | < 100 | 100 to 1000 | < 100 | > 1000 | 
Cc1ncc(C(=O)Nc2cc(C(=O)Nc3ccc(C4(C(F)(F)F)CC4)cn3)c(F)cc2C)s1 [Example 67] | > 1000 | > 1000 | < 100 | 100 to 1000 | < 100 | > 1000 | 
Cc1cc(F)c(C(=O)Nc2ccc(OC3CC3)cn2)cc1NC(=O)c1cnc(N)s1 [Example 129, 2-Amino-N-[5-[(5-cyclopropyloxypyridin-2-yl)carbamoyl]-4-fluoro-2-methylphenyl]-1,3-thiazole-5-carboxamide] | > 1000 | 100 to 1000 | < 100 | 100 to 1000 | < 100 | > 1000 | 
Cc1cc(F)c(C(=O)Nc2ccc(OCC3CC3)cn2)cc1NC(=O)c1cnc(N)s1 [Example 143, 2-Amino-N-[5-[[5-(cyclopropylmethoxy)pyridin-2-yl]carbamoyl]-4-fluoro-2-methylphenyl]-1,3-thiazole-5-carboxamide] | > 1000 | > 1000 | < 100 | 100 to 1000 | < 100 | > 1000 | 
CO[C@H]1C[C@H](n2ccc(NC(=O)c3cc(NC(=O)c4cnc(N)s4)c(C)cc3F)n2)C1 [Example 187, 2-Amino-N-[4-fluoro-5-[[1-(trans-3-methoxycyclobutyl)pyrazol-3-yl]carbamoyl]-2-methylphenyl]-1,3-thiazole-5-carboxamide] | > 1000 | > 1000 | < 100 | > 1000 | < 100 | > 1000 | 
CCOc1ccc(NC(=O)c2cc(NC(=O)c3cnc(N)s3)c(F)cc2F)nc1 [Example 212, 2-Amino-N-[5-[(5-ethoxypyridin-2-yl)carbamoyl]-2,4-difluorophenyl]-1,3-thiazole-5-carboxamide] | > 1000 | > 1000 | < 100 | > 1000 | < 100 | > 1000 | 
CCc1ccc(NC(=O)c2cc(NC(=O)c3cnc(C)s3)c(C)cc2F)nc1 [Example 82, N-[5-[(5-ethylpyridin-2-yl)carbamoyl]-4-fluoro-2-methylphenyl]-2-methyl-1,3-thiazole-5-carboxamide] | > 1000 | > 1000 | < 100 | > 1000 | < 100 | > 1000 | 
Nc1ncc(C(=O)Nc2cc(C(=O)Nc3ccc(OC(F)F)cn3)c(F)cc2Cl)s1 [Example 208, 2-Amino-N-[2-chloro-5-[[5-(difluoromethoxy)pyridin-2-yl]carbamoyl]-4-fluorophenyl]-1,3-thiazole-5-carboxamide] | > 1000 | 100 to 1000 | < 100 | 100 to 1000 | < 100 | > 1000 | 
Cc1cc(F)c(C(=O)NCC2(F)CCC2)cc1NC(=O)c1cnc(N)s1 [Example 192, 2-amino-N-[4-fluoro-5-[(1-fluorocyclobutyl)methylcarbamoyl]-2-methylphenyl]-1,3-thiazole-5-carboxamide] | > 1000 | > 1000 | < 100 | 100 to 1000 | < 100 | > 1000 | 
Cc1cc(F)c(C(=O)Nc2ccn(C3CC3)n2)cc1NC(=O)c1cnc(N)s1 [Example 159, 2-Amino-N-[5-[(1-cyclopropylpyrazol-3-yl)carbamoyl]-4-fluoro-2-methylphenyl]-1,3-thiazole-5-carboxamide] | > 1000 | > 1000 | < 100 | > 1000 | < 100 | > 1000 | 
Nc1ncc(C(=O)Nc2cc(C(=O)Nc3ncc(C4CC4)cn3)c(F)cc2Cl)s1 [Example 203, 2-Amino-N-[2-chloro-5-[(5-cyclopropylpyrimidin-2-yl)carbamoyl]-4-fluorophenyl]-1,3-thiazole-5-carboxamide] | > 1000 | 100 to 1000 | < 100 | 100 to 1000 | < 100 | > 1000 | 

The next lines start with the values.

IC50 [1] [nM] | IC50 [2] [nM] | IC50 ([3]; M-07e) [nM] | IC50 [4] [nM] | IC50 [5] [nM] | IC50 [6] [nM] | IC50 [3] [nM] | Structure (SMILES)
> 1000 | > 1000 | < 100 | > 1000 | < 100 | > 1000 |  | CNc1ncc(C(=O)Nc2cc(C(=O)Nc3ccc(OC4CC4)cn3)c(F)cc2C)s1 [Example 241, N-[5-[(5-cyclopropyloxypyridin-2-yl)carbamoyl]-4-fluoro-2-methylphenyl]-2-(methylamino)-1,3-thiazole-5-carboxamide]
> 1000 | 100 to 1000 | 100 to 1000 | > 1000 | < 100 | > 1000 |  | Cc1cc(F)c(C(=O)N[C@H]2CCOC2)cc1NC(=O)c1cnc(NC(=O)N2CCC2)s1 [Example 102, 2-(Azetidine-1-carbonylamino)-N-[4-fluoro-2-methyl-5-[[(3S)-oxolan-3-yl]carbamoyl]phenyl]-1,3-thiazole-5-carboxamide]
100 to 1000 | 100 to 1000 | < 100 | 100 to 1000 | < 100 | > 1000 |  | Cc1cc(F)c(C(=O)Nc2ccc(C3CC3)cn2)cc1NC(=O)c1cnc(N)s1 [Example 130, 2-Amino-N-[5-[(5-cyclopropylpyridin-2-yl)carbamoyl]-4-fluoro-2-methylphenyl]-1,3-thiazole-5-carboxamide]
100 to 1000 | 100 to 1000 | < 100 | 100 to 1000 | < 100 | > 1000 |  | Cc1cc(F)c(C(=O)Nc2ccc(OC3CC3)nn2)cc1NC(=O)c1cnc(N)s1 [Example 258, 2-Amino-N-[5-[(6-cyclopropyloxypyridazin-3-yl)carbamoyl]-4-fluoro-2-methylphenyl]-1,3-thiazole-5-carboxamide]
100 to 1000 | 100 to 1000 | < 100 | < 100 | < 100 | > 1000 |  | Cc1cc(F)c(C(=O)Nc2ccc(OC3CCC3)cn2)cc1NC(=O)c1cnc(N)s1 [Example 134, 2-Amino-N-[5-[(5-cyclobutyloxypyridin-2-yl)carbamoyl]-4-fluoro-2-methylphenyl]-1,3-thiazole-5-carboxamide]
100 to 1000 | 100 to 1000 |  | < 100 | < 100 | > 1000 | < 100 | Cc1cc(F)c(C(=O)Nc2ccc(OC3CC3)cn2)cc1NC(=O)c1cnc(NC(=O)C2CC2)s1 [Example 238, 2-(Cyclopropanecarbonylamino)-NV-[5-[(5-cyclopropyloxypyridin-2-yl)carbamoyl]-4-fluoro-2-methylphenyl]-1,3-thiazole-5-carboxamide]
100 to 1000 | 100 to 1000 | < 100 | 100 to 1000 | < 100 | > 1000 |  | Cc1cc(F)c(C(=O)Nc2ccc(Cl)cc2)cc1NC(=O)c1cnc(N)s1 [Example 231, 2-Amino-N-[5-[(4-chlorophenyl)carbamoyl]-4-fluoro-2-methylphenyl]-1,3-thiazole-5-carboxamide]
